The text below walks through data of patent publication US8524755B2 (priority 2009, dated 2013).

One assay concerns the target T1, β1 (h) (Homo sapiens, UniProt P08588).
T1 construct: expressed in transfected cells; host or cells: HEK-293 cells
As to the kind of experiment: Binding β1 (h) (ag). Conditions: read-out: % Inhibition of Control Specific Binding @ 10 μM. The method, then: (§1) Radioligand binding assay methods utilized to measure the activity of compounds of the invention will be familiar to those skilled in the art. In each assay case, the assay components such as, for example, the cell-type, ligand, reference compound and the like, will be familiar to practitioners of such an assay.
(§2) Analysis and Expression of Results: Compounds of the invention were tested in the biochemical assays and percent inhibition of specific binding was determined. The specific ligand binding to the receptors is defined as the difference between the total binding and the nonspecific binding determined in the presence of an excess of unlabelled ligand. The results are expressed as a percent inhibition of control specific binding (100−((measured specific binding/control specific binding)×100)) obtained in the presence of test compounds.

The target of another assay is T2, Cannabinoid CB2 (h) (Homo sapiens, UniProt P34972).
T2 construct: expressed in transfected cells; host or cells: CHO cells
As to the kind of experiment: Binding CB2 (h) (ag). Conditions: read-out: % Inhibition of Control Specific Binding @ 10 μM. The method, then: as §1, §2

Assay [1] has as its target T3, Cholecystokinin CCK2 (CCKB) (h) (Homo sapiens, UniProt P32239).
T3 construct: expressed in transfected cells; host or cells: CHO cells
T3 sequence (P32239 1-447): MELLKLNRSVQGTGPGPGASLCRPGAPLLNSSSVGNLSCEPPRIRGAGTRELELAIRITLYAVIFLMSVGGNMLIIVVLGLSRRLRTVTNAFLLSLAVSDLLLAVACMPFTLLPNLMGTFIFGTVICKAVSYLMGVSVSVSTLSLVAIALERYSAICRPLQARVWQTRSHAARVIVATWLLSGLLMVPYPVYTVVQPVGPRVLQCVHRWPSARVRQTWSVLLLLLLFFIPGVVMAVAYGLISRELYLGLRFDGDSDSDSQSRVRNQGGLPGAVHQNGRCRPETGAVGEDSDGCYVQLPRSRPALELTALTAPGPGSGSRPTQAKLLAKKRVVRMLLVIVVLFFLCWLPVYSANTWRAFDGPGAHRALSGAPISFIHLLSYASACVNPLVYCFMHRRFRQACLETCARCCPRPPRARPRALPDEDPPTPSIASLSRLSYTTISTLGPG
As to the kind of experiment: Binding CCK2 (CCKB) (h) (ag). Conditions: read-out: % Inhibition of Control Specific Binding @ 10 μM. The method, then:
as §1, §2

Another assay deals with T4, Dopamine D2S (h) (Homo sapiens, UniProt P14416).
T4 construct: expressed in transfected cells; host or cells: HEK-293 cells
Kind of assay: Binding D2S (h) (aa). To be noted: read-out: % Inhibition of Control Specific Binding @ 10 μM. The method, then:
as §1, §2

The subject of another assay is AMPA. Kind of assay: Binding AMPA (ag). More on the design: species or system rat. The method, then:
as §1, §2

A further assay concerns kainate. Kind of assay: Binding kainate (ag). More on the design: species or system rat. The method, then: as §1, §2
The next assay has as its target T5, Neurokinin NK1 (h) (Homo sapiens, UniProt P25103).
T5 construct: (endogenous); endogenous in cells; host or cells: U-373MG cells
Kind of assay: Binding NK1 (h) (ag). To be noted: read-out: % Inhibition of Control Specific Binding @ 10 μM. The method, then:
as §1, §2

Assay [2] concerns the target T6, N neuronal α-BGTX-insensitive (α4β2) (Rattus norvegicus, UniProt P09483+P12390).
T6 construct: rat cerebral cortex; from tissue; host or cells: rat cerebral cortex
Kind of assay: Binding N neuronal α-BGTX-insensitive (α4β2) (ag). Conditions: read-out: % Inhibition of Control Specific Binding @ 10 μM. The method, then:
as §1, §2

A further assay has as its system P2X. Kind of assay: Binding P2X (ag). Set-up: species or system rat. The method, then: as §1, §2
Assay [3] has as its system Ca^2+ channel (L, dihydropyridine site). As to the kind of experiment: Binding Ca2+ channel (L, dihydropyridine site) (aa). More on the design: species or system rat. The method, then:
as §1, §2

Assay [4] deals with Ca^2+ channel (L, verapamil site) (phenylalkylamine). Kind of assay: Binding Ca2+ channel (L, verapamil site) (aa). Set-up: species or system rat. The method, then: as §1, §2
In a further assay the test system is SKCa channel. Kind of assay: Binding SKCa channel (aa). More on the design: species or system rat. The method, then:
as §1, §2

A further assay has as its system Na^+ channel (site 2). Kind of assay: Binding Na+ channel (site 2) (aa). More on the design: species or system rat. The method, then:
as §1, §2

For another assay, the target named is T7, PDE4D (h) (Homo sapiens, UniProt Q08499).
T7 construct: host or cells: Sf9 cells
Kind of assay: Enzyme assay PDE4D (h). The format is biochemical. To be noted: read-out: % Inhibition of Control Values @ 10 μM. An excerpt: (§3) The enzyme assays provided below will be familiar to those skilled in the art.
(§4) Analysis and Expression of Results: The results are expressed as a percent of control specific activity ((measured specific activity/control specific activity)×100) obtained in the presence of the test compounds.

The subject of a further assay is COMT. As to the kind of experiment: Enzyme assay COMT. Format: biochemical, porcine.
Text: as §3, §4

Assay [5] concerns the target T8, human GABAA α1β3 receptor (Homo sapiens, UniProt P14867+P28472).
T8 construct: expressed in transfected cells; host or cells: Xenopus laevis oocytes, cDNA injection
T8 sequence (P14867 28-456): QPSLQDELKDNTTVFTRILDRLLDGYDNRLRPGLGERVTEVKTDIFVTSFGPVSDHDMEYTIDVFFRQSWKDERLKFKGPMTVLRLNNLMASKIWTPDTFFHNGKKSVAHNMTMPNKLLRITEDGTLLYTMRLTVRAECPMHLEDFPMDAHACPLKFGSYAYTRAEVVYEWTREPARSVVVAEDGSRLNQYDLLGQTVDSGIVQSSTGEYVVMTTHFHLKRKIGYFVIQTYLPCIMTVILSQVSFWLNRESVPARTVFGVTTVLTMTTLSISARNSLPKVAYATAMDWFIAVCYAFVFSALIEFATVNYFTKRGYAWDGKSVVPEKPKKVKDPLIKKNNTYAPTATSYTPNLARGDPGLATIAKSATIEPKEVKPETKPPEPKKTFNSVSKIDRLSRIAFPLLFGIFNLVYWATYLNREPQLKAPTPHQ
T8 sequence (P28472 26-473): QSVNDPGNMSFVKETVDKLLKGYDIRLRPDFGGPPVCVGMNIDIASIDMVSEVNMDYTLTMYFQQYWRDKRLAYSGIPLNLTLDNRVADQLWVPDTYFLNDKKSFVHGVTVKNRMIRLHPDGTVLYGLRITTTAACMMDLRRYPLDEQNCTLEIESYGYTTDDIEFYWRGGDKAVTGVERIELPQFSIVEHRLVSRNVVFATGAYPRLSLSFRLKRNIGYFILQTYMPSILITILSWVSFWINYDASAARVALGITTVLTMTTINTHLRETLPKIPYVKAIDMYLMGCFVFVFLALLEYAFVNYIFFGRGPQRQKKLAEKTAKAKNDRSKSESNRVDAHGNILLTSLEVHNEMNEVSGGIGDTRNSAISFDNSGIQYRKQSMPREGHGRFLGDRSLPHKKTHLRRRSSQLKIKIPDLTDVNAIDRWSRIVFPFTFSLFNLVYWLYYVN
Kind of assay: cell-based. To be noted: for inhibition at 100 µM: read-out: α1β3 GABAA % Inhibition @ 100 μM; for IC50: α1β3 GABAA IC50 (μM).

T2 sequence (P34972 whole entry): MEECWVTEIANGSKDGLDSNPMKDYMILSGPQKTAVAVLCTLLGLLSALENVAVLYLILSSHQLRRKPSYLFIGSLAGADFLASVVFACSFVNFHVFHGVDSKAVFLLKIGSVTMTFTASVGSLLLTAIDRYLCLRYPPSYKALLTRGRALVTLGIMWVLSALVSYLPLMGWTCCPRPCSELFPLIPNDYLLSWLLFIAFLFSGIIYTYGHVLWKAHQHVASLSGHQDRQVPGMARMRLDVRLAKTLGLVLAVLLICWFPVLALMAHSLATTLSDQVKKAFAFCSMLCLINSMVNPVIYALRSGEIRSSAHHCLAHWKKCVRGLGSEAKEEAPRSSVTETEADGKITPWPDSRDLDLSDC
T7 sequence (Q08499 whole entry): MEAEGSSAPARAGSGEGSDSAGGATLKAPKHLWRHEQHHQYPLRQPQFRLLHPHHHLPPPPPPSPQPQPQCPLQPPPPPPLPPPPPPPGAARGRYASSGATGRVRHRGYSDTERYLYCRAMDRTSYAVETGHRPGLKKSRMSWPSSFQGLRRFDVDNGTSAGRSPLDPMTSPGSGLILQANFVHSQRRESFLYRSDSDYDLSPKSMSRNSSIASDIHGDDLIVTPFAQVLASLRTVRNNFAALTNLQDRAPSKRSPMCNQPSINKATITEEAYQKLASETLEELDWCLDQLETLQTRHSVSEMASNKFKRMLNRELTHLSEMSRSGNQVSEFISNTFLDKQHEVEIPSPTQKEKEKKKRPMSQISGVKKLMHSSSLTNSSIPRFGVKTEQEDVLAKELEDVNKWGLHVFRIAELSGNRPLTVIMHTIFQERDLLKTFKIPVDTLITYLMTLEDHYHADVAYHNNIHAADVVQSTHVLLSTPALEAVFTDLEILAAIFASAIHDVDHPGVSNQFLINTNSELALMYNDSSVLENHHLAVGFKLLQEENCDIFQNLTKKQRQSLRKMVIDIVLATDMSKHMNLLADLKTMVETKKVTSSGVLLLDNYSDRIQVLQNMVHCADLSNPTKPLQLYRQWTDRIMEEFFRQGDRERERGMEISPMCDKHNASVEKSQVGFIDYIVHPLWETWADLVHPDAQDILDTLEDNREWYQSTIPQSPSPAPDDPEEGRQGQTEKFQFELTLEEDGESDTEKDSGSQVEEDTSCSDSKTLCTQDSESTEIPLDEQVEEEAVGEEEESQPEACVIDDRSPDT
T5 sequence (P25103 whole entry): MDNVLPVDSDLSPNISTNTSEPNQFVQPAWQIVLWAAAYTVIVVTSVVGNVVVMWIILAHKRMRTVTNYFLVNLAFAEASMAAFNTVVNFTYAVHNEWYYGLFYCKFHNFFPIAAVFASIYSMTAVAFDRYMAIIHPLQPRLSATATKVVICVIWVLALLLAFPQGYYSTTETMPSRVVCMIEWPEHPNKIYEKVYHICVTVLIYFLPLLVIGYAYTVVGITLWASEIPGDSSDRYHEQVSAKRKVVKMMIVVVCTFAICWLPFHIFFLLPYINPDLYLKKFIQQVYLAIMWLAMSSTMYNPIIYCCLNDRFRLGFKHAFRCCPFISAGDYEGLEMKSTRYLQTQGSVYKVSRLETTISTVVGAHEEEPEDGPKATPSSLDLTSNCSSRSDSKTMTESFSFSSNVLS
T1 sequence (P08588 whole entry): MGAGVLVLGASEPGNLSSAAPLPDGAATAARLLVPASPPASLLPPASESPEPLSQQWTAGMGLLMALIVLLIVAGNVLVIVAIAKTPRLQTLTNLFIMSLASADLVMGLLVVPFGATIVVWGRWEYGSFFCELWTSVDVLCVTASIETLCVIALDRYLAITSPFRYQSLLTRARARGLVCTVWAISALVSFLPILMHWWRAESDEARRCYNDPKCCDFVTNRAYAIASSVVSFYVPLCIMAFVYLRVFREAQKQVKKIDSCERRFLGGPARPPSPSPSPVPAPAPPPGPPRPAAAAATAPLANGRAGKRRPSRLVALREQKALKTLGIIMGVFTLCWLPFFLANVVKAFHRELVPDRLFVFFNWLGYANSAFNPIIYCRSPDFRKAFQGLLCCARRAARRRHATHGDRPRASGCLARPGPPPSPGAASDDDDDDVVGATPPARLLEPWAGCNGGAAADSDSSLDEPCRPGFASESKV
T6 sequence (P09483 31-630): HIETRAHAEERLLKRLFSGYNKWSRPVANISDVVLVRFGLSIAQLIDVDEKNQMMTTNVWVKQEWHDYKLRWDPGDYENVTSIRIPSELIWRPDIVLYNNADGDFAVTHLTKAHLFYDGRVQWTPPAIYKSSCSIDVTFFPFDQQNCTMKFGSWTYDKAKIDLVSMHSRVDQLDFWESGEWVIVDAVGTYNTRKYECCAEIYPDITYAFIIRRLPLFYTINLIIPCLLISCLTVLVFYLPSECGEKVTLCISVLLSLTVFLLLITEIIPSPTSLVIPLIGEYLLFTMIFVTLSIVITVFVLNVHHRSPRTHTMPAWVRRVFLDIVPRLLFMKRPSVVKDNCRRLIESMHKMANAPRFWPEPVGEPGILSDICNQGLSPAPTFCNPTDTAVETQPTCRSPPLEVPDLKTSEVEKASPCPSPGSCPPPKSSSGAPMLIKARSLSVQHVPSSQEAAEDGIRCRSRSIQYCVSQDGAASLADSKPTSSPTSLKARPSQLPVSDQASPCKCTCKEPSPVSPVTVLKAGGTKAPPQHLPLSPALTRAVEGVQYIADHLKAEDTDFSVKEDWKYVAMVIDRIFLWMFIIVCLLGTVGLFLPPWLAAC
T6 sequence (P12390 25-500): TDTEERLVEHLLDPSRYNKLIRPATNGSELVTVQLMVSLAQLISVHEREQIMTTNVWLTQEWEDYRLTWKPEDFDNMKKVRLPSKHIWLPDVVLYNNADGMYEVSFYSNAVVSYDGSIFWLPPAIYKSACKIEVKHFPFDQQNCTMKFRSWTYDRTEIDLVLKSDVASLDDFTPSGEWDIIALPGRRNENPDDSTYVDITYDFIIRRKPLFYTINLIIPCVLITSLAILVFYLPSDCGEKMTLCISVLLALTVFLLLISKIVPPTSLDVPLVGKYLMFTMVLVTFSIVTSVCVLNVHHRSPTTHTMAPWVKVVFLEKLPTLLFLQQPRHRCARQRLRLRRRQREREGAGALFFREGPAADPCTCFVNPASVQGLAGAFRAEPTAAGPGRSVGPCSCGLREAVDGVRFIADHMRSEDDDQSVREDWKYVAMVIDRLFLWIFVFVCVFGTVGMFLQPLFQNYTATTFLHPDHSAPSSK
T4 sequence (P14416 1-414 isoform P14416-2): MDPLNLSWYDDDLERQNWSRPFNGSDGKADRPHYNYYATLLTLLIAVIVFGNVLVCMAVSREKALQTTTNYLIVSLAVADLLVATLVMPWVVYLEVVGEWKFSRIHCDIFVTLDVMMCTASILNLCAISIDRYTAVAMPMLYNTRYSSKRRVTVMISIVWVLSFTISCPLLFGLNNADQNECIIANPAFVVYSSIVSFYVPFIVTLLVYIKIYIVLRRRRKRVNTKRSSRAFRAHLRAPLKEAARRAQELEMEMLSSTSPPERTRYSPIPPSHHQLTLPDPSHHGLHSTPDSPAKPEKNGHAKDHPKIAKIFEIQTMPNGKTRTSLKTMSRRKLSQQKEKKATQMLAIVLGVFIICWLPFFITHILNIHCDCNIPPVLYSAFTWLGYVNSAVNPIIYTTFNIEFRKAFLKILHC

Usually inhibition stands for the drop in the measured response relative to a control, in per cent. The IC50 is the concentration at which inhibition is half-maximal. Take `CC1(C)C(=O)N(c2ccc(C#N)c(C(F)(F)F)c2)C(=O)N1c1ccc(C(N)=O)c(F)c1` [(MIII), 4-(3-(4-cyano-3-(trifluoromethyl)phenyl)-5,5-dimethyl-2,4-dioxoimidazolidin-1-yl)-2-fluorobenzamide]: the inhibition at 10 µM was 2% at β1 (h); -3% at Cannabinoid CB2 (h); -18% in assay [1]; -22% on Dopamine D2S (h); -9% on Neurokinin NK1 (h); -11% in [2]. In addition, the inhibition at 10 µM on PDE4D (h) was -11%. Further, the “% Inhibition of Control Specific Binding @ 10 μM” value in the assay on AMPA was −2%; in the assay on kainate, −10%; with P2X, 2%; in assay [3] it was −2%; in [4], −1%; in the assay on SKCa channel, 1%. For the same compound, the “% Inhibition of Control Specific Binding @ 10 μM” value with Na^+ channel (site 2) stood at 1%. Moreover, in the assay with COMT, the “% Inhibition of Control Values @ 10 μM” value was −1%. Also, the inhibition at 100 µM in [5] was determined as 57%. Besides, the IC50 in [5] was 4 ± 3.15 µM.

On to `CNC(=O)c1ccc(N2C(=O)N(c3ccc(C#N)c(C(F)(F)F)c3)C(=O)C2(C)C)cc1F` [(MIV), 4-(3-(4-cyano-3-(trifluoromethyl)phenyl)-5,5-dimethyl-2,4-dioxoimidazolidin-1-yl)-2-fluoro-N-methylbenzamide], for which the inhibition at 10 µM at β1 (h) was 3%; on Cannabinoid CB2 (h), 1%; in [1], -12%; on Dopamine D2S (h) it was -17%; on Neurokinin NK1 (h) it was -7%; in assay [2], -3%. Besides, the inhibition at 10 µM at PDE4D (h) was -41%. Further, the “% Inhibition of Control Specific Binding @ 10 μM” value is on record as −4% with AMPA; −8% in the assay with kainate; 2% in the assay on P2X; 16% in [3]; −5% in [4]; −10% in the assay with SKCa channel. For the same compound, in the assay with Na^+ channel (site 2), the “% Inhibition of Control Specific Binding @ 10 μM” value was determined as 5%. In the assay on COMT, the “% Inhibition of Control Values @ 10 μM” value was determined as 0%. Also, the inhibition at 100 µM in assay [5] was 78%.

Consider `CC1(C)C(=O)N(c2ccc(C#N)c(C(F)(F)F)c2)C(=S)N1c1ccc(C(N)=O)c(F)c1` [(MII), 4-(3-(4-Cyano-3-(trifluoromethyl)phenyl)-5,5-dimethyl-4-oxo-2-thioxoimidazolidin-1-yl)-2-fluorobenzamide], for which the inhibition at 10 µM was -7% on β1 (h); 1% at Cannabinoid CB2 (h); -18% in [1]; -8% on Dopamine D2S (h); 9% at Neurokinin NK1 (h); -3% in assay [2]. For the same compound, the inhibition at 10 µM on PDE4D (h) is -9%. Moreover, the “% Inhibition of Control Specific Binding @ 10 μM” value with AMPA is listed as −10%; in the assay with kainate it was −21%; in the assay with P2X it was 4%; in assay [3], 18%; in assay [4], −13%; in the assay with SKCa channel, 4%. Besides, the “% Inhibition of Control Specific Binding @ 10 μM” value with Na^+ channel (site 2) was determined as 13%. In the assay with COMT, the “% Inhibition of Control Values @ 10 μM” value is −1%. Moreover, the “inhibition achieved at the highest concentration” value in assay [5] was determined as 80±10%. Also, in assay [5], the inhibition at 100 µM is 88%.

Regarding `CC1(C)C(=O)N(c2ccc(C#N)c(C(F)(F)F)c2)C(=S)N1c1ccc(C(=O)O)c(F)c1` [(MI), 4-(3-(4-cyano-3-(trifluoromethyl)phenyl)-5,5-dimethyl-4-oxo-2-thioxoimidazolidin-1-yl)-2-fluorobenzoic acid], the inhibition at 10 µM at β1 (h) was -2%; on Cannabinoid CB2 (h), -2%; in assay [1], -10%; at Dopamine D2S (h), -16%; on Neurokinin NK1 (h), -7%; in assay [2] it was 0%. The inhibition at 10 µM on PDE4D (h) was 1%. Also, the “% Inhibition of Control Specific Binding @ 10 μM” value in the assay on AMPA is 1%; in the assay with kainate it was −4%; in the assay with P2X, 4%; in assay [3], 16%; in assay [4], −2%; in the assay with SKCa channel, −6%. Also, in the assay on Na^+ channel (site 2), the “% Inhibition of Control Specific Binding @ 10 μM” value is recorded as −5%. Also, the “% Inhibition of Control Values @ 10 μM” value in the assay with COMT amounted to 1%. Further, the “inhibition achieved at the highest concentration” value in assay [5] amounted to 75±18.4%. Further, the inhibition at 100 µM in [5] is 90%. In assay [5], this compound had a half-maximal inhibitory concentration (IC50) of 20.7 ± 6 µM.
